# From paper PMC6008492, “Structure activity relationship studies on rhodanines and derived enethiol inhibitors of metallo-β-lactamases” (Bioorganic & Medicinal Chemistry, 2018)
# How the values were obtained:
# BcII = biological target: T1, BcII (Bacillus cereus, UniProt P04190); assay: biochemical; details: enethiols 6 assayed as sodium salts; 10 min incubation; read-out: IC50 BcII (converted)
# T1 construct: made in house
# Procedure: (§1) Inhibition analyses against bacterial MBLs and SBLs were performed as described previously.[22], [24], [26] Residual enzyme activities were determined for a range of inhibitor concentrations. Non-linear regression fitting of IC50 curves was carried out using a three-parameter dose–response curve in GraphPad Prism. Errors in IC50 values are expressed as: σ(logIC50)/logIC50×IC50
# (§2) We first screened the inhibitors against a representative set of presently clinically important and other MBLs[22], comprising both Class B1 enzymes (NDM-1, New Delhi MBL-1; VIM-2, Verona integron–encoded MBL-2; BcII, Bacillus cereus II MBL; SPM-1, São Paulo MBL-1; IMP-1, imipenemase MBL-1) and the Class B2 MBL CphA (carbapenem hydrolysing MBL from Aeromonas hydrophila).[22] The latter MBL (CphA) only utilises one active site Zn(II) ion in catalysis, whilst the others normally use two Zn(II) ions.
# Figure S2: IC50 curves for BcII inhibition time courses. Residual activities were calculated from the initial
# rate of FC5 hydrolysis after incubation of the enzyme with the inhibitor for 10 minutes. […]
# SPM-1 = SPM-1 (Pseudomonas aeruginosa, UniProt Q8G9Q0); assay: SPM-1 inhibition, fluorogenic cephalosporin (FC5) hydrolysis; assay type: biochemical; details: enethiols 6 assayed as sodium salts; 10 min incubation; read-out: IC50 SPM-1 (converted)
# Procedure: as §1, §2
# Figure S5: IC50 curves for SPM-1 inhibition time courses. Residual activities were calculated from the
# (§3) initial rate of FC5 hydrolysis after incubation of the enzyme with the inhibitor for 10 minutes. […]
# IMP-1 = biological target: T2, IMP-1 (Serratia marcescens, UniProt P52699); assay: IMP-1 inhibition, fluorogenic cephalosporin (FC5) hydrolysis; assay type: biochemical; details: enethiols 6 assayed as sodium salts; 10 min incubation; read-out: IC50 IMP-1 (converted)
# T2 construct: made in house
# Procedure: as §1, §2
# Figure S3: IC50 curves for IMP-1 inhibition time courses. Residual activities were calculated from the
# initial rate of FC5 hydrolysis after incubation of the enzyme with the inhibitor for 10 minutes.
# NDM-1 = biological target: T3, NDM-1 (Klebsiella pneumoniae, UniProt C7C422); assay: NDM-1 inhibition, fluorogenic cephalosporin (FC5) hydrolysis; assay type: biochemical; details: enethiols 6 assayed as sodium salts; 10 min incubation; read-out: IC50 NDM-1
# T3 construct: made in house
# Procedure: as §1, §2
# Figure S4: IC50 curves for NDM-1 inhibition time courses. Residual activities were calculated from the
# as §3
# VIM-2 = biological target: T4, VIM-2 (Escherichia coli, UniProt Q5U7L7); assay: biochemical; details: enethiols 6 assayed as sodium salts; 10 min incubation; read-out: IC50 VIM-2 (converted)
# T4 construct: made in house
# Procedure: as §1
# as §2, with “ions. We also screened the inhibitors against a representative panel of SBLs from different classes (TEM-1, Temoneira β-lactamase-1, class A; CTX-M-15, cefotaxime hydrolysing β-lactamase from Munich 15, class A, extended spectrum β-lactamase (ESBL); AmpC E. coli, class C, and OXA-10, oxacillinase-10, class D).” for “ions.”
# Figure S6: IC50 curves for VIM-2 inhibition time courses. Residual activities were calculated from the
# as §3
# T3 sequence (C7C422 29-270, looked up, species assumed): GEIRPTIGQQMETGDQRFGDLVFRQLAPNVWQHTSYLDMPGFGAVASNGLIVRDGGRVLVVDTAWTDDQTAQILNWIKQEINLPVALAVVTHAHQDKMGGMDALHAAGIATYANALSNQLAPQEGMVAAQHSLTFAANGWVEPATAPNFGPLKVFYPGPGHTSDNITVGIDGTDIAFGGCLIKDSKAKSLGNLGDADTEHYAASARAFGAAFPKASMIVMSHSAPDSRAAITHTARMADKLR
# Chain of SPM-1 (Q8G9Q0 entry or part of it): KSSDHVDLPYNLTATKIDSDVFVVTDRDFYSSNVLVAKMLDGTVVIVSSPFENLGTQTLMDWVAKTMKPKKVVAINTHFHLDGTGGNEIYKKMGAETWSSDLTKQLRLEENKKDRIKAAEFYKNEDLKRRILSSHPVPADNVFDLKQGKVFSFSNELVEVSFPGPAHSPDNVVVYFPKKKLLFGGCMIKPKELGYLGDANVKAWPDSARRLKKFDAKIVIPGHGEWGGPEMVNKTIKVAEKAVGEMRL
# T2 sequence (P52699 19-246, looked up, species assumed): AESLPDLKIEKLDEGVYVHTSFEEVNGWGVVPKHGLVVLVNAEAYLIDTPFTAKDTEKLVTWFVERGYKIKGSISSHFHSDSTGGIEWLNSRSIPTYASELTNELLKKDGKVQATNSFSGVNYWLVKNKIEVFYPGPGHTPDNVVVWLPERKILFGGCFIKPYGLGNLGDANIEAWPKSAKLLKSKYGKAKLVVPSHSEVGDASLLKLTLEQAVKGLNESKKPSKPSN
# T1 sequence (P04190 31-257): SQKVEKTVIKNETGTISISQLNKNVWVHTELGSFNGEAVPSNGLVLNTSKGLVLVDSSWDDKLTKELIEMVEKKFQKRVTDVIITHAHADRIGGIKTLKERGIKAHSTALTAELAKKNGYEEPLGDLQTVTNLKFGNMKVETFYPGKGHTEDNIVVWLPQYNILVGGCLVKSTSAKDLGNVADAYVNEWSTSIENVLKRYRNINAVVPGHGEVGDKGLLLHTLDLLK
Structure (SMILES),IC50 (BcII) [µM],IC50 (SPM-1) [µM],IC50 (IMP-1) [µM],IC50 (NDM-1) [µM],IC50 (VIM-2) [µM]
CN1CCN(NC(=O)CN2C(=O)/C(=C/c3c(F)cccc3Cl)SC2=S)CC1 [Compound 5j],2,0.1,0.3,> 50,0.8
Cc1cccc(C)c1/C=C1\SC(=S)N(CC(=O)O)C1=O [Compound 3q],> 50,> 50,> 50,> 50,18.7 ± 1
O=C(O)/C(S)=C/c1ccccc1Cc1ccc2ccccc2c1 [Compound 6s],0.2 ± 0.03,0.06 ± 0.003,0.08 ± 0.002,1.1 ± 1.7,0.1 ± 0.003
CN1CCN(NC(=O)CN2C(=O)/C(=C/c3ccccc3Cl)SC2=S)CC1 [Compound 5g],> 50,9.8,7.6,> 50,2
CN1CCN(NC(=O)CN2C(=O)/C(=C/c3cc(Cl)ccc3Cl)SC2=S)CC1 [Compound 5o],15.4,2.8,7,> 50,> 50
O=C(O)/C(S)=C/c1ccccc1Cl [Compound 6g],0.9,0.1,0.4,5.1,0.4
O=C(O)CN1C(=O)/C(=C/c2ccccc2I)SC1=S [Compound 3i],31.7 ± 1,2 ± 0.5,22.4 ± 0.4,> 50,5.9 ± 0.1
O=C(O)/C(S)=C/c1ccccc1F [Compound 6f],4,0.3,1.4,12.9,3.3
O=C(O)/C(S)=C/c1c(F)cccc1Cl [Compound 6j],0.06,0.0043,0.03,4.4,0.05
O=C(O)/C(S)=C/c1ccccc1Br [Compound 6h],5.8,3.5,0.8,16.2,2.7
CN1CCN(NC(=O)CN2C(=O)/C(=C/c3c(F)cccc3F)SC2=S)CC1 [Compound 5p],3,1.3,1.3,> 50,41.7
CN1CCN(NC(=O)CN2C(=O)/C(=C/c3ccc(Br)cc3)SC2=S)CC1 [Compound 5d],> 50,> 50,28.7,> 50,44
COc1ccc(/C=C2\SC(=S)N(CC(=O)NN3CCN(C)CC3)C2=O)cc1 [Compound 5e],> 50,> 50,31.5,48.9,> 50
O=C(O)CN1C(=O)/C(=C/c2ccccc2Cl)SC1=S [Compound 3g],> 50,25.1 ± 1.5,43.2 ± 2.1,> 50,6.7 ± 0.2
O=C(O)CN1C(=O)/C(=C/c2ccccc2Br)SC1=S [Compound 3h],> 50,36.6 ± 0.8,32.5 ± 1.3,> 50,> 50
Cc1ccc(/C=C(\S)C(=O)O)cc1 [Compound 6b],0.7,0.3,0.2,3.7,0.4
O=C(O)CN1C(=O)/C(=C/c2cccc(Cl)c2Cl)SC1=S [Compound 3n],22.1 ± 1,1 ± 0.1,46.2 ± 1.4,> 50,7.6 ± 0.3
O=C(O)CN1C(=O)/C(=C/c2c(F)cccc2F)SC1=S [Compound 3p],> 50,32.1 ± 2.3,> 50,> 50,6.8 ± 0.2
O=C(O)/C(S)=C/c1c(F)ccc(F)c1F [Compound 6k],0.3,0.1,0.4,3.3,0.3
CN1CCN(NC(=O)CN2C(=O)/C(=C/c3csc4ccccc34)SC2=S)CC1 [Compound 5L],7.2,> 50,> 50,> 50,41.8

Structure (SMILES),IC50 (BcII) [µM],IC50 (SPM-1) [µM],IC50 (IMP-1) [µM],IC50 (NDM-1) [µM],IC50 (VIM-2) [µM]
O=C(O)/C(S)=C/c1ccc(F)cc1 [Compound 6c],8.2,4.1,2.7,5,9.7
CN1CCN(NC(=O)CN2C(=O)/C(=C/c3ccccc3F)SC2=S)CC1 [Compound 5f],26.3,42.7,22.6,> 50,6.2
Cc1ccc(/C=C2\SC(=S)N(CC(=O)O)C2=O)cc1 [Compound 3b],> 50,> 50,> 50,> 50,32 ± 0.7
O=C(O)CN1C(=O)/C(=C/c2ccccc2F)SC1=S [Compound 3f],> 50,> 50,> 50,> 50,17.6 ± 0.7
Cc1ccc(/C=C2\SC(=S)N(CC(=O)NN3CCN(C)CC3)C2=O)cc1 [Compound 5b],> 50,> 50,> 50,28,> 50
Cc1cccc(C)c1/C=C1\SC(=S)N(CC(=O)NN2CCN(C)CC2)C1=O [Compound 5q],27,0.2,2.7,> 50,29.4
O=C(O)/C(S)=C/c1ccccc1I [Compound 6i],,1.4,0.7,5,3.5
O=C(O)CN1C(=O)/C(=C/c2c(Cl)ccc(Cl)c2Cl)SC1=S [ML302A],21.3 ± 0.5,4.8 ± 0.3,9.6 ± 0.4,> 50,3.6 ± 0.7
O=C(O)CN1C(=O)/C(=C/c2ccc(Br)cc2)SC1=S [Compound 3d],> 50,39.7 ± 0.8,> 50,> 50,> 50
O=C(O)CN1C(=O)/C(=C/c2ccc(F)cc2)SC1=S [Compound 3c],> 50,> 50,> 50,> 50,34.5 ± 0.6
O=C(O)CN1C(=O)/C(=C/c2cc(Cl)ccc2Cl)SC1=S [Compound 3o],> 50,16.6 ± 1,> 50,> 50,> 50
CN1CCN(NC(=O)CN2C(=O)/C(=C/c3ccc(F)cc3)SC2=S)CC1 [Compound 5c],> 50,> 50,> 50,> 50,> 50
O=C(O)/C(S)=C/c1ccc(Br)cc1 [Compound 6d],9.9,2.3,3.3,,9.4
O=C(O)CN1C(=O)/C(=C/c2csc3ccccc23)SC1=S [Compound 3L],21.7 ± 2.4,13.9 ± 0.5,> 50,> 50,36.9 ± 0.2
O=C(O)CN1C(=O)/C(=C/c2c(Cl)cccc2Cl)SC1=S [Compound 3m],41.8 ± 2.3,3.5 ± 0.4,18.9 ± 0.8,> 50,0.6 ± 0.1
O=C(O)CN1C(=O)/C(=C/c2ccccc2)SC1=S [Compound 3a],> 50,> 50,> 50,> 50,36.8 ± 0.3
COc1ccc(/C=C2\SC(=S)N(CC(=O)O)C2=O)cc1 [Compound 3e],> 50,> 50,> 50,> 50,> 50
CN1CCN(NC(=O)CN2C(=O)/C(=C/c3ccccc3I)SC2=S)CC1 [Compound 5i],> 50,8.8,37.1,> 50,37.6
O=C(O)CN1C(=O)/C(=C/c2c(F)cccc2Cl)SC1=S [Compound 3j],> 50,1.2 ± 0.3,43.7 ± 0.5,> 50,9.8 ± 2.8
